Test results: ChEMBL document CHEMBL6153042, “Glycoconjugates of adefovir and tenofovir as asialoglycoprotein-mediated Anti-HBV prodrugs with enhanced liver targeting” (Eur J Med Chem, 2025); call rule not given here

Assays:
LX-2 [1] = assay: Cytotoxicity against human LX2 cells at 5 uM incubated for 48 hrs by CCK8 assay; format: toxicity, cell-based; conditions: lx-2, 48 h
Hepatitis B virus [2] = assay: Antiviral activity against Hepatitis B virus infected in human HepG2.2.15 cells assessed as inhibition of HBV DNA replication incubated for 9 day; conditions: HepG2.2.15, 216 h
LX-2 [3] = assay: Cytotoxicity against human LX2 cells assessed as cell growth inhibition at 10 uM incubated for 48 hrs by CCK8 assay relative to control; format: toxicity, cell-based; conditions: lx-2, 48 h, 10 µM
[4] = Drug uptake in Sprague-Dawley rat liver at 10 mg/kg, iv measured after 1 to 6 hrs by LC-MS/MS analysis; format: ADME, organism-based; conditions: in vivo, time 1-6 hrs
[5] = Toxicity in Kunming mouse assessed as histopathological changes in liver at 200 mg/kg, iv once daily for 5 days by H and E staining based analysis; format: organism-based; conditions: in vivo, 120 h, time 5 day
[6] = Toxicity in Kunming mouse assessed as effect on heart size at 100 to 200 mg/kg, iv once daily for 5 days; format: organism-based; conditions: in vivo, 120 h, dose 100-200 mg/kg, time 5 day
Hepatitis B virus [7] = assay: Antiviral activity against Hepatitis B virus infected in human HepG2.2.15 cells assessed as inhibition of HBV DNA replication incubated for 10 day by qPCR analysis; format: functional, organism-based; conditions: HepG2.2.15, 240 h
[8] = Toxicity in Kunming mouse assessed as effect on kidney size at 100 to 200 mg/kg, iv once daily for 5 days; format: organism-based; conditions: in vivo, 120 h, dose 100-200 mg/kg, time 5 day
[9] = Toxicity in Kunming mouse assessed as effect on kidney weight at 100 to 200 mg/kg, iv once daily for 5 days; format: organism-based; conditions: in vivo, 120 h, dose 100-200 mg/kg, time 5 day
[10] = Toxicity in Kunming mouse assessed as effect on liver colour at 100 to 200 mg/kg, iv once daily for 5 days; format: organism-based; conditions: in vivo, 120 h, dose 100-200 mg/kg, time 5 day
[11] = Drug metabolism in plasma of Sprague-Dawley rat assessed as (1-(36-(((2R,3R,4S,5R,6R)-3-acetamido-4,5-dihydroxy-6-(hydroxymethyl)tetrahydro-2H-pyran-2-yl)oxy)-21,21-bis((3-((3-(5-(((2R,3R,4S,5R,6R)-3-acetamido-4,5-dihydroxy-6-(hydroxymethyl)tetrahydro-2H-pyran-2-yl)oxy)pentanamido)propyl)amino)-3-oxopropoxy)methyl)-16,19,26,32-tetraoxo-3,6,9,12,23-pentaoxa-15,20,27,31-tetraazahexatriacontyl)-1H-1,2,3-triazol-4-yl)methyl hydrogen ((((R)-1-(6-amino-9H-purin-9-yl)propan-2-yl)oxy)methyl)phosphonate formation measured at 2.1 mins by HPLC analysis; format: ADME, cell-free; conditions: 0.035 h
[12] = Toxicity in Kunming mouse assessed as effect on liver size at 100 to 200 mg/kg, iv once daily for 5 days; format: organism-based; conditions: in vivo, 120 h, dose 100-200 mg/kg, time 5 day
[13] = Toxicity in Kunming mouse assessed as effect on body weight at 100 to 200 mg/kg, iv administered once daily for 5 days; format: organism-based; conditions: in vivo, 120 h, dose 100-200 mg/kg, time 5 day
[14] = Toxicity in Kunming mouse assessed as effect on liver weight at 100 to 200 mg/kg, iv once daily for 5 days; format: organism-based; conditions: in vivo, 120 h, dose 100-200 mg/kg, time 5 day
[15] = Stability of compound in PBS buffer assessed as half-life by high-performance liquid chromatography; format: physicochemical
[16] = Selectivity index, the ratio of CC50 for human HepG2.2.15 cells to EC50 for antiviral activity against HBV in human HepG2.2.15 cells assessed as inhibition of HBV DNA replication; format: toxicity, cell-based; conditions: read-out: Ratio CC50/EC50
[17] = Toxicity in Kunming mouse assessed as effect on kidney colour at 100 to 200 mg/kg, iv once daily for 5 days; format: organism-based; conditions: in vivo, 120 h, dose 100-200 mg/kg, time 5 day
[18] = Toxicity in Kunming mouse assessed as effect on heart weight at 100 to 200 mg/kg, iv once daily for 5 days; format: organism-based; conditions: in vivo, 120 h, dose 100-200 mg/kg, time 5 day
[19] = Toxicity in Kunming mouse assessed as maximum tolerated dose administered intravenously as once daily dose for 5 days; conditions: in vivo, route iv, time 5 day
[20] = Toxicity in Kunming mouse assessed as histopathological changes in heart at 200 mg/kg, iv once daily for 5 days by H and E staining based analysis; format: organism-based; conditions: in vivo, 120 h, time 5 day
[21] = Cytotoxicity against human HepG2.2.15 cells assessed as inhibition of cell proliferation by CCK8 assay; format: toxicity, cell-based, HepG2 2.2.15
[22] = Toxicity in Kunming mouse assessed as histopathological changes in kidney at 200 mg/kg, iv once daily for 5 days by H and E staining based analysis; format: organism-based; conditions: in vivo, 120 h, time 5 day
[23] = Toxicity in Kunming mouse assessed as effect on heart colour at 100 to 200 mg/kg, iv once daily for 5 days; format: organism-based; conditions: in vivo, 120 h, dose 100-200 mg/kg, time 5 day

For `CC(C)OC(=O)[C@H](C)N[P@](=O)(CO[C@H](C)Cn1cnc2c(N)ncnc21)Oc1ccccc1` [TENOFOVIR ALAFENAMIDE], the Activity (LX-2 [1]) was “Toxic”, the EC50 (Hepatitis B virus [2]) was 0.0122 µM and the Activity (LX-2 [3]) was “Toxic”.

With `CC(=O)N[C@H]1[C@H](OCCCCC(=O)NCCCNC(=O)CCOCC(COCCC(=O)NCCCNC(=O)CCCCO[C@@H]2O[C@H](CO)[C@H](O)[C@@H](O)[C@H]2NC(C)=O)(COCCC(=O)NCCCNC(=O)CCCCO[C@@H]2O[C@H](CO)[C@H](O)[C@@H](O)[C@H]2NC(C)=O)NC(=O)CCC(=O)NCCOCCOCCOCCOCCn2cc(COP(=O)(CO[C@H](C)Cn3cnc4c(N)ncnc43)OCOC(=O)OC(C)C)nn2)O[C@H](CO)[C@H](O)[C@H]1O` (stereo not given in full) the Drug uptake [4] was “Active”, the Activity [5] was “Non-toxic” and the Activity [6] was “Non-toxic”. The EC50 (Hepatitis B virus [7]) was 0.0948 µM, the Activity [8] was “Non-toxic” and the Activity [9] was “Non-toxic”. The Activity [10] was “Non-toxic”, the Drug metabolism [11] was “metabolite_detected” and the Activity [12] was “Non-toxic”. For the same molecule, the Activity [13] was “Non-toxic”, the Activity (LX-2 [1]) was “Toxic” and the Activity [14] was “Non-toxic”. For the same molecule, the half-life [15] was > 24 h, the selectivity ratio [16] was > 1050 and the Activity [17] was “Non-toxic”. For the same molecule, the Activity [18] was “Non-toxic”, the MTD at 120 h [19] was ~200 mg/kg and the Activity [20] was “Non-toxic”. For the same molecule, the CC50 [21] was > 100 µM, the Activity [22] was “Non-toxic” and the Activity [23] was “Non-toxic”. The Activity (LX-2 [3]) was “Toxic”.
